# System: crabgrass (Digitaria sanguinalis L.): DIGSA
# Experiment: Test Example 1 pre-emergence herbicidal activity, DIGSA
# Type: in vivo
# Conditions: Rate 63 g a.i./ha, visually observed 20th to 23rd day after application
# In short: (§1)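 Percent growth control, rated visually 20–23 d after a pre-emergence spray applied 1 d post-sowing; compound formulated as WP or EC in 500 L/ha water at a predetermined a.i. amount.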
row,Structure (SMILES),Pre-emergence Herbicidal Activity DIGSP (growth controlling degree) [%]
1,COc1c(Cl)cc(F)c(-c2nn(C)c(OC(F)F)c2Cl)c1NC(=O)C(C)(C)OC(C)=O [Compound 1-44],100
2,COc1c(Cl)cc(F)c(-c2nn(C)c(OC(F)F)c2Cl)c1NC(=O)COCc1ccccc1 [Compound 1-45],90

# System: rice (Oryza sativa L.): ORYSA
# Experiment: Test Example 1 pre-emergence herbicidal activity, ORYSA
# Type: in vivo
# Conditions: Rate 63 g a.i./ha, visually observed 20th to 23rd day after application
# In short: as §1
row,Structure (SMILES),Pre-emergence Herbicidal Activity ORYSA (growth controlling degree) [%]
1,COc1c(Cl)cc(F)c(-c2nn(C)c(OC(F)F)c2Cl)c1NC(=O)C(C)(C)OC(C)=O [Compound 1-44],10
2,COc1c(Cl)cc(F)c(-c2nn(C)c(OC(F)F)c2Cl)c1NC(=O)COCc1ccccc1 [Compound 1-45],30

# System: velvetleaf (Abutilon theophrasti), ABUTH
# Experiment: Test Example 2 post-emergence (foliage treatment) herbicidal activity, ABUTH
# Type: in vivo
# Conditions: 63 g a.i./ha
# In short: (§2)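 A small sprayer delivered the diluted WP or EC formulation (500 L/ha water, 0.1% v/v spreader) over emerged seedlings in upland soil pots. Damage relative to untreated plants was graded visually from 0 to 100% three weeks or so later (days 20-23).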
row,Structure (SMILES),"growth controlling degree, ABUTH [%]"
1,COc1c(Cl)cc(F)c(-c2nn(C)c(OC(F)F)c2Cl)c1NC(=O)C(C)(C)OC(C)=O [Compound 1-44],100
2,COc1c(Cl)cc(F)c(-c2nn(C)c(OC(F)F)c2Cl)c1NC(=O)COCc1ccccc1 [Compound 1-45],100

# System: corn (Zea mays L.), ZEAMX
# Experiment: Test Example 2 post-emergence (foliage treatment) herbicidal activity, ZEAMX
# Type: in vivo
# Conditions: 63 g a.i./ha
# In short: as §2
row,Structure (SMILES),"growth controlling degree, ZEAMX [%]"
1,COc1c(Cl)cc(F)c(-c2nn(C)c(OC(F)F)c2Cl)c1NC(=O)C(C)(C)OC(C)=O [Compound 1-44],10
2,COc1c(Cl)cc(F)c(-c2nn(C)c(OC(F)F)c2Cl)c1NC(=O)COCc1ccccc1 [Compound 1-45],40

# System: wheat (Triticum aestivum L.), TRZAX
# Experiment: Test Example 2 post-emergence (foliage treatment) herbicidal activity, TRZAX
# Type: in vivo
# Conditions: 63 g a.i./ha
# In short: as §2
row,Structure (SMILES),"growth controlling degree, TRZAX [%]"
1,COc1c(Cl)cc(F)c(-c2nn(C)c(OC(F)F)c2Cl)c1NC(=O)C(C)(C)OC(C)=O [Compound 1-44],20
2,COc1c(Cl)cc(F)c(-c2nn(C)c(OC(F)F)c2Cl)c1NC(=O)COCc1ccccc1 [Compound 1-45],40

# System: prickly sida (Sida spinosa L.): SEDSP
# Experiment: Test Example 1 pre-emergence herbicidal activity, SIDSP
# Type: in vivo
# Conditions: Rate 63 g a.i./ha, visually observed 20th to 23rd day after application
# In short: as §1
row,Structure (SMILES),Pre-emergence Herbicidal Activity SIDSP (growth controlling degree) [%]
1,COc1c(Cl)cc(F)c(-c2nn(C)c(OC(F)F)c2Cl)c1NC(=O)C(C)(C)OC(C)=O [Compound 1-44],100
2,COc1c(Cl)cc(F)c(-c2nn(C)c(OC(F)F)c2Cl)c1NC(=O)COCc1ccccc1 [Compound 1-45],0

# System: soybean (Glycine max Merr.), GLXMA
# Experiment: Test Example 2 post-emergence (foliage treatment) herbicidal activity, GLXMA
# Type: in vivo
# Conditions: 63 g a.i./ha
# In short: as §2
row,Structure (SMILES),"growth controlling degree, GLXMA [%]"
1,COc1c(Cl)cc(F)c(-c2nn(C)c(OC(F)F)c2Cl)c1NC(=O)C(C)(C)OC(C)=O [Compound 1-44],40
2,COc1c(Cl)cc(F)c(-c2nn(C)c(OC(F)F)c2Cl)c1NC(=O)COCc1ccccc1 [Compound 1-45],60

# System: redroot pigweed (Amaranthus retroflexus L.), AMARE
# Experiment: Test Example 2 post-emergence (foliage treatment) herbicidal activity, AMARE
# Type: in vivo
# Conditions: 63 g a.i./ha
# Description: Upland field soil was put into a 1/170,000 ha pot, and seeds of various plants were sown. Then, when the plants reached predetermined leaf stages {1. barnyardgrass (Echinochloa crus-galli L.), ECHCG: 1.1-2.1 leaf stage, 2. crabgrass (Digitaria sanguinalis L.), DIGSA: 1.0-2.0 leaf stage, 3. green foxtail (Setaria viridis L.), SETVI: 1.0-2.2 leaf stage, 4. redroot pigweed (Amaranthus retroflexus L.), AMARE: 0.1-1.5 leaf stage, 5. prickly sida (Sida spinosa L.), SIDSP: 0.1-0.6 leaf stage, 6. velvetleaf (Abutilon theophrasti), ABUTH: 0.1-0.6 leaf stage, 7. common cocklebur (Xanthium strumarium L.), XANST: 0.1 leaf stage, 8. rice (Oryza sativa L.), ORYSA; 1.0-2 leaf stage, 9. wheat (Triticum aestivum L.), TRZAX: 2.3-3.5 leaf stage, 10. corn (Zea mays L.), ZEAMXN 2.1-2.6 leaf stage, 11. soybean (Glycine max Merr.), GLXMA: primary leaf stage}, a wettable powder or emulsifiable concentrate having the compound of the present invention formulated in accordance with a usual formulation method, was weighed so that the active ingredient would be a predetermined amount, and diluted with water in an amount of 500 L/ha. To the diluted solution, 0.1% (v/v) of an agricultural spreader was added. The herbicide adjusted was applied by a small size sprayer for foliage treatment. On the 20th to 23rd day after the application of the herbicide, the growth of the respective plants was visually observed, and the herbicidal effects were evaluated by growth controlling degrees (%) ranging from 0 (equivalent to the untreated control) to 100 (complete kill), whereby the results shown in Table 5, were obtained. Compound Nos. in Table 5 correspond to Compound Nos. in Table 1 and 2 given hereinbefore.
row,Structure (SMILES),"growth controlling degree, AMARE [%]"
1,COc1c(Cl)cc(F)c(-c2nn(C)c(OC(F)F)c2Cl)c1NC(=O)C(C)(C)OC(C)=O [Compound 1-44],100
2,COc1c(Cl)cc(F)c(-c2nn(C)c(OC(F)F)c2Cl)c1NC(=O)COCc1ccccc1 [Compound 1-45],100

# System: rice (Oryza sativa L.), ORYSA
# Experiment: Test Example 2 post-emergence (foliage treatment) herbicidal activity, ORYSA
# Type: in vivo
# Conditions: 63 g a.i./ha
# In short: (§3)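 Each species was evaluated for growth suppression by eye, 0% matching untreated and 100% meaning death, some 20 to 23 days after a single post-emergence foliar treatment applied in 500 L/ha of water carrying 0.1% (v/v) agricultural spreader.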
row,Structure (SMILES),"growth controlling degree, ORYSA [%]"
1,COc1c(Cl)cc(F)c(-c2nn(C)c(OC(F)F)c2Cl)c1NC(=O)C(C)(C)OC(C)=O [Compound 1-44],50
2,COc1c(Cl)cc(F)c(-c2nn(C)c(OC(F)F)c2Cl)c1NC(=O)COCc1ccccc1 [Compound 1-45],80

# System: barnyardgrass (Echinochloa crus-galli L.), ECHCG
# Experiment: Test Example 2 post-emergence (foliage treatment) herbicidal activity, ECHCG
# Type: in vivo
# Conditions: 63 g a.i./ha
# In short: as §3
row,Structure (SMILES),"growth controlling degree, ECHCO [%]"
1,COc1c(Cl)cc(F)c(-c2nn(C)c(OC(F)F)c2Cl)c1NC(=O)C(C)(C)OC(C)=O [Compound 1-44],50
2,COc1c(Cl)cc(F)c(-c2nn(C)c(OC(F)F)c2Cl)c1NC(=O)COCc1ccccc1 [Compound 1-45],95

# System: barnyardgrass (Echinochloa crus-galli L.): ECHCG
# Experiment: Test Example 1 pre-emergence herbicidal activity, ECHCG
# Type: in vivo
# Conditions: Rate 63 g a.i./ha, visually observed 20th to 23rd day after application
# In short: as §1
row,Structure (SMILES),Pre-emergence Herbicidal Activity ECHCG (growth controlling degree) [%]
1,COc1c(Cl)cc(F)c(-c2nn(C)c(OC(F)F)c2Cl)c1NC(=O)C(C)(C)OC(C)=O [Compound 1-44],10
2,COc1c(Cl)cc(F)c(-c2nn(C)c(OC(F)F)c2Cl)c1NC(=O)COCc1ccccc1 [Compound 1-45],0

# System: redroot pigweed (Amaranthus retroflexus L.): AMARE
# Experiment: Test Example 1 pre-emergence herbicidal activity, AMARE
# Type: in vivo
# Conditions: Rate 63 g a.i./ha, visually observed 20th to 23rd day after application
# In short: as §1
row,Structure (SMILES),Pre-emergence Herbicidal Activity AMARE (growth controlling degree) [%]
1,COc1c(Cl)cc(F)c(-c2nn(C)c(OC(F)F)c2Cl)c1NC(=O)C(C)(C)OC(C)=O [Compound 1-44],100
2,COc1c(Cl)cc(F)c(-c2nn(C)c(OC(F)F)c2Cl)c1NC(=O)COCc1ccccc1 [Compound 1-45],100

# System: corn (Zea mays L.): ZEAMX
# Experiment: Test Example 1 pre-emergence herbicidal activity, ZEAMX
# Type: in vivo
# Conditions: Rate 63 g a.i./ha, visually observed 20th to 23rd day after application
# In short: as §1
row,Structure (SMILES),Pre-emergence Herbicidal Activity ZEAMX (growth controlling degree) [%]
1,COc1c(Cl)cc(F)c(-c2nn(C)c(OC(F)F)c2Cl)c1NC(=O)C(C)(C)OC(C)=O [Compound 1-44],0
2,COc1c(Cl)cc(F)c(-c2nn(C)c(OC(F)F)c2Cl)c1NC(=O)COCc1ccccc1 [Compound 1-45],0

# System: wheat (Triticum aestivum L.): TRZAX
# Experiment: Test Example 1 pre-emergence herbicidal activity, TRZAX
# Type: in vivo
# Conditions: Rate 63 g a.i./ha, visually observed 20th to 23rd day after application
# In short: as §1
row,Structure (SMILES),Pre-emergence Herbicidal Activity TRZAX (growth controlling degree) [%]
1,COc1c(Cl)cc(F)c(-c2nn(C)c(OC(F)F)c2Cl)c1NC(=O)C(C)(C)OC(C)=O [Compound 1-44],10
2,COc1c(Cl)cc(F)c(-c2nn(C)c(OC(F)F)c2Cl)c1NC(=O)COCc1ccccc1 [Compound 1-45],10

# System: crabgrass (Digitaria sanguinalis L.), DIGSA
# Experiment: Test Example 2 post-emergence (foliage treatment) herbicidal activity, DIGSA
# Type: in vivo
# Conditions: 63 g a.i./ha
# In short: as §3
row,Structure (SMILES),"growth controlling degree, DIGSP [%]"
1,COc1c(Cl)cc(F)c(-c2nn(C)c(OC(F)F)c2Cl)c1NC(=O)C(C)(C)OC(C)=O [Compound 1-44],60
2,COc1c(Cl)cc(F)c(-c2nn(C)c(OC(F)F)c2Cl)c1NC(=O)COCc1ccccc1 [Compound 1-45],70

# System: green foxtail (Setaria viridis L.): SETVI
# Experiment: Test Example 1 pre-emergence herbicidal activity, SETVI
# Type: in vivo
# Conditions: Rate 63 g a.i./ha, visually observed 20th to 23rd day after application
# In short: as §1
row,Structure (SMILES),Pre-emergence Herbicidal Activity SETVI (growth controlling degree) [%]
1,COc1c(Cl)cc(F)c(-c2nn(C)c(OC(F)F)c2Cl)c1NC(=O)C(C)(C)OC(C)=O [Compound 1-44],20
2,COc1c(Cl)cc(F)c(-c2nn(C)c(OC(F)F)c2Cl)c1NC(=O)COCc1ccccc1 [Compound 1-45],40

# System: velvetleaf (Abutilon theophrasti): ABUTH
# Experiment: Test Example 1 pre-emergence herbicidal activity, ABUTH
# Type: in vivo
# Conditions: Rate 63 g a.i./ha, visually observed 20th to 23rd day after application
# In short: as §1
row,Structure (SMILES),Pre-emergence Herbicidal Activity ABUTH (growth controlling degree) [%]
1,COc1c(Cl)cc(F)c(-c2nn(C)c(OC(F)F)c2Cl)c1NC(=O)C(C)(C)OC(C)=O [Compound 1-44],60
2,COc1c(Cl)cc(F)c(-c2nn(C)c(OC(F)F)c2Cl)c1NC(=O)COCc1ccccc1 [Compound 1-45],30

# System: soybean (Glycine max Merr.): GLXMA
# Experiment: Test Example 1 pre-emergence herbicidal activity, GLXMA
# Type: in vivo
# Conditions: Rate 63 g a.i./ha, visually observed 20th to 23rd day after application
# In short: as §1
row,Structure (SMILES),Pre-emergence Herbicidal Activity GLXMA (growth controlling degree) [%]
1,COc1c(Cl)cc(F)c(-c2nn(C)c(OC(F)F)c2Cl)c1NC(=O)C(C)(C)OC(C)=O [Compound 1-44],0
2,COc1c(Cl)cc(F)c(-c2nn(C)c(OC(F)F)c2Cl)c1NC(=O)COCc1ccccc1 [Compound 1-45],0

# System: green foxtail (Setaria viridis L.), SETVI
# Experiment: Test Example 2 post-emergence (foliage treatment) herbicidal activity, SETVI
# Type: in vivo
# Conditions: 63 g a.i./ha
# In short: as §2
row,Structure (SMILES),"growth controlling degree, SETVI [%]"
1,COc1c(Cl)cc(F)c(-c2nn(C)c(OC(F)F)c2Cl)c1NC(=O)C(C)(C)OC(C)=O [Compound 1-44],80
2,COc1c(Cl)cc(F)c(-c2nn(C)c(OC(F)F)c2Cl)c1NC(=O)COCc1ccccc1 [Compound 1-45],90

# — patent US20050245399A1, “Pyrazole derivatives as herbicidal compositions containing them” (ISHIHARA SANGYO KAISHA, LTD., priority 2004, published 2005)
